Laboratory results reported in US10307357B2, “Prebiotic oral care compositions containing an alkyl glycoside” (COLGATE-PALMOLIVE COMPANY, priority 2013, dated 2019).

Legend:
Test in all cases: Phenotype microarray metabolic activity
Assay type in all cases: cell-based
Conditions in all cases: control = 1
Actinomyces naeslundii = system: Actinomyces naeslundii
Protocol: (§1) The extent of metabolic activity of the tested bacteria in the presence of the above-mentioned glycosides after 24 hours and 48 hours was investigated through a high throughput phenotype microarray system (PM) for microbial cells (Biolog Inc.). Each PM can contain up to 95 different biochemical compounds (e.g. glycosides) that may act as substrates for bacteria as well as one negative control, not containing the substrates. Microarray plates were used in which the different wells of each plate were pre-loaded (by the manufacturer, Biolog Inc.) with different glycosides to be tested. Each bacterial species was tested using a separate microarray plate. Thus, a single bacterial species was tested with a variety of glycosides on each particular plate. The microarrays are based on redox technology, using cell respiration as a universal reporter. Active cell respiration results in the reduction of a tetrazolium dye and in the formation of a strong color—for example, when using the tetrazolium dye “Biolog Redox Dye Mix D”, the color changes from transparent/colorless to purple when the dye is reduced. The observation of this color change indicates which of the substrates improve the metabolic activity and health of the cells. Each bacterial species was collected from blood agar plates (incubated for 48 hours anaerobically at 37° C.) and transferred to an IF-0 Base inoculation fluid (Biolog Inc.), which is a nutritionally poor medium. The resulting cell suspension was adjusted to a transmittance of 42% (relative to the transmittance of the base inoculation fluid with no bacterial species present) at 492 nm using a BioRad SmartSpec 3000 Photometer (the adjustment being effected by adding either further inoculation fluid or further bacteria until the transmittance of 42% was achieved). A 1:5 dilution of this suspension was prepared by mixing 3 mL of the 42% transmittance cell suspension with […] of an inoculation fluid (which inoculation fluid was formed by mixing 11.6 mL sterile water, 62.5 mL IF-0 base inoculation fluid and 0.9 mL of the tetrazolium dye “Biolog Redox Dye mix D”), resulting in a final cell density which was equal to 85% transmittance using a BioRad SmartSpec 3000 Photometer. For each of the glycosides tested, the microarray plate (obtained from the supplier (Biolog Inc.) with glycosides already present in the relevant wells in powder form) was directly inoculated with 100 μL/well of this 85% transmittance cell suspension. All plates were incubated in an anaerobic atmosphere at 37° C. Color changes were measured spectrophotometrically at 492 nm (Thermo Scientific Multiskan Ascent) at 24 hrs and 48 hrs using the same plate at both time points. […] After 24 hrs and 48 hrs under continuous shaking in a Multiscan microplate reader, the optical density (OD) of the synthetic medium at 24 hours and 48 hours was measured (using the microplate reader) at a wavelength of 492 nm for each combination of bacterium/glycoside, and for each of their respective controls (i.e. which contained the particular bacterium but no glycosides). […] The experiment was carried out three times for each combination of bacterium with glycosides, with each repeat being carried out on a different day (thus providing three biological replicas). The controls were also carried out three times, as above. The values shown are the average (mean) of the three single values obtained (as detailed above) for each combination of bacterium with glycosides, at 24 hrs and at 48 hrs.

Actinomyces viscosus = system: Actinomyces viscosus
Protocol: as §1

[1] = system: Aggregatibacter actinomycetemcomitans
Protocol: as §1

Capnocytophaga sputigena = system: Capnocytophaga sputigena
Protocol: as §1

Fusobacterium nucleatum = system: Fusobacterium nucleatum
Protocol: as §1

Porphyromonas gingivalis = system: Porphyromonas gingivalis
Protocol: as §1

Streptococcus gordonii = system: Streptococcus gordonii
Protocol: as §1

Streptococcus mitis = system: Streptococcus mitis
Protocol: as §1

Streptococcus mutans = system: Streptococcus mutans
Protocol: as §1

Streptococcus salivarius = system: Streptococcus salivarius
Protocol: as §1

Streptococcus sobrinus = system: Streptococcus sobrinus
Protocol: as §1

Tannerella forsythia = system: Tannerella forsythia
Protocol: as §1

Veillonella parvula = system: Veillonella parvula
Protocol: as §1

Row | SMILES | OD 492 nm divided by control (metabolic activity) (Actinomyces naeslundii; 24 hrs) | OD 492 nm divided by control (metabolic activity) (Actinomyces naeslundii; 48 hrs) | OD 492 nm divided by control (metabolic activity) (Actinomyces viscosus; 24 hrs) | OD 492 nm divided by control (metabolic activity) (Actinomyces viscosus; 48 hrs) | OD 492 nm divided by control (metabolic activity) ([1]; 24 hrs) | OD 492 nm divided by control (metabolic activity) ([1]; 48 hrs) | OD 492 nm divided by control (metabolic activity) (Capnocytophaga sputigena; 24 hrs) | OD 492 nm divided by control (metabolic activity) (Capnocytophaga sputigena; 48 hrs) | OD 492 nm divided by control (metabolic activity) (Fusobacterium nucleatum; 24 hrs) | OD 492 nm divided by control (metabolic activity) (Fusobacterium nucleatum; 48 hrs) | OD 492 nm divided by control (metabolic activity) (Porphyromonas gingivalis; 24 hrs) | OD 492 nm divided by control (metabolic activity) (Porphyromonas gingivalis; 48 hrs) | OD 492 nm divided by control (metabolic activity) (Streptococcus gordonii; 24 hrs) | OD 492 nm divided by control (metabolic activity) (Streptococcus gordonii; 48 hrs) | OD 492 nm divided by control (metabolic activity) (Streptococcus mitis; 24 hrs) | OD 492 nm divided by control (metabolic activity) (Streptococcus mitis; 48 hrs) | OD 492 nm divided by control (metabolic activity) (Streptococcus mutans; 24 hrs) | OD 492 nm divided by control (metabolic activity) (Streptococcus mutans; 48 hrs) | OD 492 nm divided by control (metabolic activity) (Streptococcus salivarius; 24 hrs) | OD 492 nm divided by control (metabolic activity) (Streptococcus salivarius; 48 hrs) | other results
1 | CO[C@H]1O[C@H](CO)[C@H](O)[C@H](O)[C@H]1O [α-methyl-D-galactoside] | 2.1644 | 2.8156 | 2.4728 | 3.3823 | 0.8204 | 0.7697 | 0.5747 | 0.8435 | 0.8949 | 0.8204 | 0.8079 | 0.8180 | 0.8960 | 0.8401 | 1.3498 | 1.3555 | 1.0573 | 0.9904 | 0.9677 | 0.8829 | OD 492 nm divided by control (metabolic activity) (Streptococcus sobrinus; 24 hrs): 1.0761; OD 492 nm divided by control (metabolic activity) (Streptococcus sobrinus; 48 hrs): 0.9730; OD 492 nm divided by control (metabolic activity) (Tannerella forsythia; 24 hrs): 1.0380; OD 492 nm divided by control (metabolic activity) (Tannerella forsythia; 48 hrs): 1.1302; OD 492 nm divided by control (metabolic activity) (Veillonella parvula; 24 hrs): 0.9782; OD 492 nm divided by control (metabolic activity) (Veillonella parvula; 48 hrs): 1.2054
2 | CO[C@@H]1O[C@H](CO)[C@H](O)[C@H](O)[C@H]1O [β-methyl-D-galactoside] | 1.5393 | 1.9886 | 2.8391 | 3.9827 | 0.8310 | 0.7733 | 1.0421 | 1.0860 | 0.9051 | 0.7899 | 1.1297 | 1.8212 | 1.4834 | 1.8026 | 1.0977 | 0.9864 | 1.1594 | 1.0780 | 6.9837 | 6.4661 | OD 492 nm divided by control (metabolic activity) (Streptococcus sobrinus; 24 hrs): 1.3078; OD 492 nm divided by control (metabolic activity) (Streptococcus sobrinus; 48 hrs): 1.3002; OD 492 nm divided by control (metabolic activity) (Tannerella forsythia; 24 hrs): 1.2183; OD 492 nm divided by control (metabolic activity) (Tannerella forsythia; 48 hrs): 1.8850; OD 492 nm divided by control (metabolic activity) (Veillonella parvula; 24 hrs): 0.8103; OD 492 nm divided by control (metabolic activity) (Veillonella parvula; 48 hrs): 0.6840
